From paper PMC9834298, “Prolyl-tRNA synthetase as a novel therapeutic target in multiple myeloma” (Blood Cancer Journal, 2023)

Assays:
[1] = target: T1, human prolyl-tRNA synthetase (ProRS domain of GluProRS) (Homo sapiens, UniProt P07814); assay: TR-FRET ligand displacement with […] ATP; format: binding
T1 construct: gene EPRS1; recombinant human ProRS
T1 sequence (P07814 998-1512): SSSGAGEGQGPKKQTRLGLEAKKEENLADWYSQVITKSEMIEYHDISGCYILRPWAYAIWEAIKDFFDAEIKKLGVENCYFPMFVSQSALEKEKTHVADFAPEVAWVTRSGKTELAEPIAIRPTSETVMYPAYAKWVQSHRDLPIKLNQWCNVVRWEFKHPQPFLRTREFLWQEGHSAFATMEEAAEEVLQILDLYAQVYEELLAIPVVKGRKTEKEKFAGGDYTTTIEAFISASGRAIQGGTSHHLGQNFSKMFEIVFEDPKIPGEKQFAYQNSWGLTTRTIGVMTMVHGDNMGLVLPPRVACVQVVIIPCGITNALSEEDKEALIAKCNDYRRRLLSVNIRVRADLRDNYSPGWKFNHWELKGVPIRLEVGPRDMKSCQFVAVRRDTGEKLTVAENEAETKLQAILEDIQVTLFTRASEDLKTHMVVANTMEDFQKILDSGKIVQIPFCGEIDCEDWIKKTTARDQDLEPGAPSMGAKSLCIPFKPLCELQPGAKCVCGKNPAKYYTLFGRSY

[2] = target: T1, human prolyl-tRNA synthetase (ProRS domain of GluProRS); assay: TR-FRET ligand displacement with […] proline; crystal structure with proline; format: binding

| SMILES | Kd [1] | Kd [2] |
| --- | --- | --- |
| O=C(CC1NCCCC1O)Cn1cnc2cc(Br)c(Cl)cc2c1=O (centres unmarked) [HFG, Halofuginone] | 0.19 nM | – |
| O=C(NC1Cc2ccccc2C1)c1nccnc1NC(=O)N1CCCCC1 [NCP26] | – | 0.35 nM |
